Laboratory results published in PubChem BioAssay (NCI).
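Protocol summary: plate cells (96-well), add compound at 5 concentrations, incubate 48 h, interpolate endpoints linearly. The concentration for full growth arrest is given as TGI.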

What was measured:
Assay in all cases: NCI-60 cell line screen, 48 h
TK-10 renal = system: TK-10 renal
SF-268 CNS = system: SF-268 CNS
786-0 renal = system: 786-0 renal
MDA-MB-231 breast = system: MDA-MB-231 breast
NCI/ADR-RES ovarian = system: NCI/ADR-RES ovarian
SW-620 colon = system: SW-620 colon
UACC-257 melanoma = system: UACC-257 melanoma
COLO 205 colon = system: COLO 205 colon
HCT-15 colon = system: HCT-15 colon
OVCAR-3 ovarian = system: OVCAR-3 ovarian
A498 renal = system: A498 renal
RXF 393 renal = system: RXF 393 renal
PC-3 prostate = system: PC-3 prostate
IGROV1 ovarian = system: IGROV1 ovarian
HT29 colon = system: HT29 colon
EKVX NSCLC = system: EKVX NSCLC
SN12C renal = system: SN12C renal
UACC-62 melanoma = system: UACC-62 melanoma
KM12 colon = system: KM12 colon
SK-MEL-5 melanoma = system: SK-MEL-5 melanoma
T-47D breast = system: T-47D breast
SF-539 CNS = system: SF-539 CNS
HL-60(TB) leukemia = system: HL-60(TB) leukemia
OVCAR-4 ovarian = system: OVCAR-4 ovarian
SK-MEL-2 melanoma = system: SK-MEL-2 melanoma
M14 melanoma = system: M14 melanoma
HCT-116 colon = system: HCT-116 colon
SF-295 CNS = system: SF-295 CNS
MCF7 breast = system: MCF7 breast
SR leukemia = system: SR leukemia
SNB-19 CNS = system: SNB-19 CNS
U251 CNS = system: U251 CNS
LOX IMVI melanoma = system: LOX IMVI melanoma
NCI-H460 lung = system: NCI-H460 lung
SK-OV-3 ovarian = system: SK-OV-3 ovarian
DU-145 prostate = system: DU-145 prostate
MALME-3M melanoma = system: MALME-3M melanoma
HOP-92 NSCLC = system: HOP-92 NSCLC
OVCAR-5 ovarian = system: OVCAR-5 ovarian
A549 NSCLC = system: A549 NSCLC
CAKI-1 renal = system: CAKI-1 renal
BT-549 breast = system: BT-549 breast
MDA-N = system: MDA-N
HCC-2998 colon = system: HCC-2998 colon
MOLT-4 leukemia = system: MOLT-4 leukemia
HS 578T breast = system: HS 578T breast
SK-MEL-28 melanoma = system: SK-MEL-28 melanoma
CCRF-CEM leukemia = system: CCRF-CEM leukemia
NCI-H23 lung = system: NCI-H23 lung
ACHN renal = system: ACHN renal
UO-31 renal = system: UO-31 renal
NCI-H522 lung = system: NCI-H522 lung
MDA-MB-435 = system: MDA-MB-435
K-562 leukemia = system: K-562 leukemia
HOP-62 NSCLC = system: HOP-62 NSCLC
OVCAR-8 ovarian = system: OVCAR-8 ovarian
RPMI-8226 leukemia = system: RPMI-8226 leukemia
NCI-H226 lung = system: NCI-H226 lung

Work on `O=C(/C=C/C(=O)N1CCCC1)N1CCCC1` yielded a TGI (TK-10 renal) of over 100 µM, a TGI (SF-268 CNS) of over 100 µM and a TGI (786-0 renal) of over 100 µM. It also gave a TGI (MDA-MB-231 breast) of over 100 µM, a TGI (NCI/ADR-RES ovarian) of over 100 µM and a TGI (SW-620 colon) of over 100 µM. The TGI (UACC-257 melanoma) was over 100 µM, the TGI (COLO 205 colon) was over 100 µM and the TGI (HCT-15 colon) was over 100 µM. It also gave a TGI (OVCAR-3 ovarian) of over 100 µM, a TGI (A498 renal) of over 100 µM and a TGI (RXF 393 renal) of over 100 µM. It also gave a TGI (PC-3 prostate) of over 100 µM, a TGI (IGROV1 ovarian) of over 100 µM and a TGI (HT29 colon) of over 100 µM. The TGI (EKVX NSCLC) was over 100 µM, the TGI (SN12C renal) was over 100 µM and the TGI (UACC-62 melanoma) was over 100 µM. It also gave a TGI (KM12 colon) of over 100 µM, a TGI (SK-MEL-5 melanoma) of over 100 µM and a TGI (T-47D breast) of over 100 µM. The TGI (SF-539 CNS) was over 100 µM, the TGI (HL-60(TB) leukemia) was over 100 µM and the TGI (OVCAR-4 ovarian) was over 100 µM. It also gave a TGI (SK-MEL-2 melanoma) of over 100 µM, a TGI (M14 melanoma) of over 100 µM and a TGI (HCT-116 colon) of over 100 µM. The TGI (SF-295 CNS) was over 100 µM, the TGI (MCF7 breast) was over 100 µM and the TGI (SR leukemia) was over 100 µM. It also gave a TGI (SNB-19 CNS) of over 100 µM, a TGI (U251 CNS) of over 100 µM and a TGI (LOX IMVI melanoma) of over 100 µM. The TGI (NCI-H460 lung) was over 100 µM, the TGI (SK-OV-3 ovarian) was over 100 µM and the TGI (DU-145 prostate) was over 100 µM. It also gave a TGI (MALME-3M melanoma) of over 100 µM, a TGI (HOP-92 NSCLC) of over 100 µM and a TGI (OVCAR-5 ovarian) of over 100 µM. It also gave a TGI (A549 NSCLC) of over 100 µM, a TGI (CAKI-1 renal) of over 100 µM and a TGI (BT-549 breast) of over 100 µM. The TGI (MDA-N) was over 100 µM, the TGI (HCC-2998 colon) was over 100 µM and the TGI (MOLT-4 leukemia) was over 100 µM. For the same compound, the TGI (HS 578T breast) was over 100 µM, the TGI (SK-MEL-28 melanoma) was over 100 µM and the TGI (CCRF-CEM leukemia) was over 100 µM. For the same compound, the TGI (NCI-H23 lung) was over 100 µM, the TGI (ACHN renal) was over 100 µM and the TGI (UO-31 renal) was over 100 µM. For the same compound, the TGI (NCI-H522 lung) was over 100 µM, the TGI (MDA-MB-435) was over 100 µM and the TGI (K-562 leukemia) was over 100 µM. For the same compound, the TGI (HOP-62 NSCLC) was over 100 µM, the TGI (OVCAR-8 ovarian) was over 100 µM and the TGI (RPMI-8226 leukemia) was over 100 µM.

`O=C1NC2CCCCC2N=C1CC(=O)c1ccc(Br)cc1` (centres undefined) was tested, and the TGI (TK-10 renal) was over 100 µM, the TGI (SF-268 CNS) was over 100 µM and the TGI (786-0 renal) was over 100 µM. The TGI (MDA-MB-231 breast) was 35.7 µM, the TGI (NCI/ADR-RES ovarian) was over 100 µM and the TGI (SW-620 colon) was over 100 µM. It also gave a TGI (UACC-257 melanoma) of over 100 µM, a TGI (COLO 205 colon) of over 100 µM and a TGI (HCT-15 colon) of over 100 µM. The TGI (OVCAR-3 ovarian) was over 100 µM, the TGI (A498 renal) was over 100 µM and the TGI (RXF 393 renal) was over 100 µM. It also gave a TGI (PC-3 prostate) of over 100 µM, a TGI (IGROV1 ovarian) of over 100 µM and a TGI (HT29 colon) of over 100 µM. For the same compound, the TGI (EKVX NSCLC) was 93.8 µM, the TGI (SN12C renal) was over 100 µM and the TGI (UACC-62 melanoma) was over 100 µM. For the same compound, the TGI (KM12 colon) was over 100 µM, the TGI (SK-MEL-5 melanoma) was over 100 µM and the TGI (T-47D breast) was over 100 µM. It also gave a TGI (SF-539 CNS) of over 100 µM, a TGI (HL-60(TB) leukemia) of over 100 µM and a TGI (SK-MEL-2 melanoma) of over 100 µM. The TGI (M14 melanoma) was over 100 µM, the TGI (HCT-116 colon) was over 100 µM and the TGI (SF-295 CNS) was over 100 µM. For the same compound, the TGI (MCF7 breast) was over 100 µM, the TGI (SR leukemia) was over 100 µM and the TGI (SNB-19 CNS) was over 100 µM. The TGI (U251 CNS) was over 100 µM, the TGI (LOX IMVI melanoma) was over 100 µM and the TGI (NCI-H460 lung) was over 100 µM. For the same compound, the TGI (SK-OV-3 ovarian) was over 100 µM, the TGI (DU-145 prostate) was over 100 µM and the TGI (MALME-3M melanoma) was over 100 µM. For the same compound, the TGI (HOP-92 NSCLC) was 65.8 µM, the TGI (OVCAR-5 ovarian) was over 100 µM and the TGI (A549 NSCLC) was over 100 µM. The TGI (CAKI-1 renal) was over 100 µM, the TGI (BT-549 breast) was 94.2 µM and the TGI (MDA-N) was over 100 µM. It also gave a TGI (HCC-2998 colon) of over 100 µM, a TGI (MOLT-4 leukemia) of over 100 µM and a TGI (HS 578T breast) of 42.1 µM. It also gave a TGI (SK-MEL-28 melanoma) of over 100 µM, a TGI (CCRF-CEM leukemia) of over 100 µM and a TGI (NCI-H23 lung) of over 100 µM. The TGI (ACHN renal) was over 100 µM, the TGI (NCI-H226 lung) was 81.2 µM and the TGI (UO-31 renal) was over 100 µM. It also gave a TGI (NCI-H522 lung) of over 100 µM, a TGI (MDA-MB-435) of over 100 µM and a TGI (K-562 leukemia) of over 100 µM. The TGI (HOP-62 NSCLC) was over 100 µM, the TGI (OVCAR-8 ovarian) was 19.8 µM and the TGI (RPMI-8226 leukemia) was 7.16 µM.
